Test results: US20060252774A1, “Regulation of type 5 adenylyl cyclase for treatment of neurodegenerative and cardiac diseases” (priority 2002, published 2006)

Assays:
WT and AC5KO mice [1] = assay: Pole test with dopaminergic agonists; assay type: in vivo, mouse
Description: (§1) FIG. 27. Motor dysfunction in ACD-^−/− mice. Rotarod test (A)—Each mouse was placed on a 3.5-cm diameter rod covered with rubber to evaluate rotarod performance (14). Mice were left for 1 minute on the rod for habituation. The rod rotated gradually increasing from 4 to 40 rpm over the course of 5 min and the time that mice could stay on an accelerating rotarod without failing was recorded. Five trials were conducted for each individual 10-25 min apart within the dark phase of the light/dark cycle. Mice that stayed on the rotarod for >300 sec were considered complete responders, and their latencies were recorded as 300 sec. *p<0.05, relative to ^+/+; ^+/−, n=17-20. Activity tests (B and C)—The tests were performed as previously described (14, 15). Mice were put in the darkened testing room 60 minutes for habituation before testing. Locomotor activity (B) was assessed using an activity monitor equipped with photocell beams (Columbus Instruments, Ohio, USA). The number of photobeam interruptions in each perpendicular axis was recorded and totaled for 5 min. The behavior of the mice was recorded simultaneously by video camera for later analysis, and their rearing actions were counted (C). *p<0.05, relative to ^+/+, n=15-20. Pole test (D)—In order to evaluate bradykinesia, pole test was performed (16). In brief, mice were placed head upward on the top of a rough-surfaced pole (8 mm in diameter and 50 cm in height) that was wrapped with gauze to prevent slipping. The time until it turned completely downward (open bars, Tturn) and the time until it climbed down to the floor (closed bars, TLA) were measured *p<0.01, relative to ^+/+, n=14-17. Means±SEM are shown. Homozygous to (ACD^−/−) (closed circles, ^−/−), heterozygous (shaded circles, ^+/−), and wild type (WT) (open circles, ^+/+).
(§2) FIG. 32. Effect of dopaminergic agonists on motor functions Effects of SKF38393 on locomotor activity (A), rotarod test (B), and pole test (C) were compared. […] In rotarod test, the best performance out of five trials in each individual was evaluated. […]

WT and AC5KO mice [2] = assay: Rotarod test with dopaminergic agonists; assay type: in vivo, mouse; settings: subcutaneous, 0.2 or 1.0 mg/kg
Description: as §1, §2

WT and AC5KO mice [3] = assay: Locomotor activity test with dopaminergic agonists; assay type: in vivo, mouse; settings: subcutaneous, SKF38393 25 or 50 mg/kg, cabergoline 0.2 or 1.0 mg/kg
Description: as §1, with “Activity tests (B and C)—The tests were performed as previously described (14, 15). Mice were put in the darkened testing room 60 minutes for habituation before testing.” left out, “Pole test (D)—In order to evaluate bradykinesia, pole test was performed (16). In brief, mice were placed head upward on the top of a rough-surfaced pole (8 mm in diameter and 50 cm in height) that was wrapped with gauze to prevent slipping.” left out, “Means±SEM are shown. Homozygous to (ACD^−/−) (closed circles, ^−/−), heterozygous (shaded circles, ^+/−), and wild type (WT) (open circles, ^+/+).” left out
FIG. 32. […] In rotarod test, the best performance out of five trials in each individual was evaluated. […]

L-type Ca2+ channels = assay: Whole-cell patch-clamp of Ca2+ channel currents (ICa) in myocytes; assay type: cell-based, mouse
Description: FIG. 22: A, Effects of ISO (1 μmol/L) on ICa in WT and AC5KO myoctyes. Traces show currents recorded from a holding potential of −50 mV to indicated potentials in control before (a) and after application of ISO (1 μmol/L) (b). Peak ICa were normalized to the cell capacitance to give current densities (pA/pF) and were plotted as a function of voltage (c). B, Concentration-dependent effects of ISO on ICa measured in myocytes dialyzed with EGTA or BAPTA, and on Ba^2+ currents with EGTA. The relative increase of peak current amplitude was plotted against ISO concentration. The solid lines were best fit to one-to-one binding model. Data are from 8-30 myocytes.
Whole-cell currents were recorded using patch-clamp techniques. Cell capacitance was measured using voltage ramps of 0.8 V/s from a holding potential of −50 mV. All experiments were performed at room temperature. […] The pipette solution contained (mmol/L): Cs-aspartate, 100; CsCl, 20; MgCl2, 1; MgATP, 2; GTP, 0.5; EGTA, 5 or 1,2-bis (2-aminophenoxy)ethane-N,N,N′,N′-tetraacetic acid (BAPTA), 10 and HEPES, 5 (Ph 7.3). […] Nifedipine (10 μmol/L) was added to block L-type Ca^2+ channel currents. The patch pipette solution contained (mmol/L): potassium aspartate, 110; KCl, 20; MgCl2, 2; ATP, 2; GTP, 0.5; EGTA, 5; HEPES, 5 (pH 7.3).
Ca^2+ influx through L-type Ca^2+ channels is essential for cardiac contractility, thus basic Ca^2+ channel properties were characterized. Peak inward ICa amplitude (with 5 mmol/L EGTA in the pipette solution), normalized relative to cell capacitance (ICa density), was similar in myocytes isolated from AC5KO (7.1±0.3 pA/pF, n=69) and WT (6.7±0.3 pA/pF, n=55). […] In these experiments myocytes were dialyzed with BAPTA, and peak ICa amplitude, as the function of voltage (I-V relationships) before and after exposure to ISO, was determined. In both groups, ISO increased the current amplitude at all test potentials and also shifted the I-V relationships toward more negative potentials.

cardiac AC = assay: AC assay in heart membrane preparations; assay type: biochemical, mouse; settings: 100 μmol/L ISO + 100 μmol/L GTP
Description: FIG. 17: Adrenergic, muscarinic, and Ca^2+-mediated regulation of cardiac AC activity. A, AC activity in vitro. The steady state AC activity was determined as the maximal cAMP production over 15 min. Stimulation was performed at the level of the β-AR (ISO), G-protein (GTPγS) and AC catalytic unit with forskolin (Fsk). *P<0.01, n=5. B, Effects of carbachol on AC activity. AC was preactivated by ISO. AC activity was then determined in the absence and presence of carbachol. Carbachol at 10 μmol/L produced its maximal inhibitory effect. *P<0.01, n−5. C, To investigate the inhibition of AC activity by Ca^2+, we examined cAMP production in membranes from the hearts of WT and AC5KO at increasing Ca^2+ concentrations in the presence of ISO. ISO-stimulated AC activity was inhibited more in WT than in AC5KO. […].
Hearts were dissected from the mice and membrane preparations were prepared as described previously. Protein concentration was measured by the method of Bradford using bovine serum albumin as a standard. AC activity was measured as described previously. AC activity was linear within the incubation time up to 30 min. In order to harvest hearts for tissue cAMP content measurements, mice were allowed to acclimate to the surroundings in the laboratory for an hour before sacrifice. Freshly isolated hearts were briefly immersed in liquid nitrogen. The tissue was homogenized in ice-cold 6% percholic acid, and cAMP was extracted as described before. The concentration of cAMP was determined with an RIA kit (PerkinElmer Life Sciences, Boston, Mass., USA).
Hearts were dissected from the mice, and membrane preparations were prepared as described previously. Protein concentration was measured by the Bradford method using bovine serum albumin as a standard. AC activity was measured as described previously. AC activity was linear within the incubation time up to 30 min. For the study of Ca 2+ inhibition, the membranes were treated first with EGTA to extract the endogenous Ca 2+ prior to the assay. Free Ca 2+ concentrations were obtained with the use of 200 μmol/L EGTA buffers as described previously. The experiments with Ca 2+ inhibition were conducted in the presence of 100 μmol/L isoproterenol (ISO)+100 μmol/L GTP.

[4] = test system: WT, hetero and AC5KO mice; assay: Rotor-rod test after db-cAMP injection; assay type: in vivo, mouse
Description: FIG. 9: Effects of db-cAMP on rotor-rod test. Tests were performed before (pre), 30 minutes after (post), and 48 hours after (next) the injection of db-cAMP to WT, hetero and AC5KO (n=4-7).
The locomotor activity of intact animals, AC5KO versus WT was examined (FIG. 5). At first glance the animals appeared normal, being neither catatonic nor rigid. […] The mice were studied using a rotor rod test in which mice were placed on a rototating rod and had to make continuous adjustment in balance in order to remain upright. The time that the mice spent on the accelerating rotor rod without falling was measured. The rod increased from 3 rpm to 30 rpm during each 5 min. trial. […] There was no significant difference between WT and Hetero at the 1st through 4th trial. At the 5th trial, there was a small but signiifcant decrease in their performance in Hetero.
Motor function may be improved by the administration of cAMP analogues.

**Q.** Which results are given for `C=CCN1C[C@H](C(=O)N(CCCN(C)C)C(=O)NCC)C[C@@H]2c3cccc4[nH]cc(c34)C[C@H]21` [Cabergoline]?
**A.** pole test performance at the lower dose (WT and AC5KO mice [1]; 0.2 mg/kg): dramatic improvement; pole test performance (WT and AC5KO mice [1]; subcutaneous): improved pole test performance; rotarod performance (WT and AC5KO mice [2]; AC5KO): improved rotarod performance selectively in AC5KO; rotarod performance (WT and AC5KO mice [2]; WT): essentially had no effect on WT; locomotor activity (WT and AC5KO mice [3]): no significant effect on locomotor activity in both WT and AC5KO

**Q.** How did the “maximum response of the Ca2+ channel (relative increase of peak current)” value (L-type Ca2+ channels; AC5KO myocytes, all three conditions (EGTA, BAPTA, Ba2+)) turn out when `CC(C)NCC(O)c1ccc(O)c(O)c1` (stereo not shown) [ISO, isoproterenol] was run?
**A.** ~1.5 fold

**Q.** And the “maximum response of the Ca2+ channel (relative increase of peak current)” value (L-type Ca2+ channels; WT myocytes dialyzed with EGTA)?
**A.** ~1.7 fold

**Q.** And the “maximum response of the Ca2+ channel (relative increase of peak current)” value (L-type Ca2+ channels; WT myocytes, BAPTA or Ba2+)?
**A.** ~2.4 fold

**Q.** What about the “increase of AC activity” value (cardiac AC; AC5KO heart membranes) of the same compound?
**A.** 64±4 pmol/15 min/mg

**Q.** And the “increase of AC activity” value (cardiac AC; WT heart membranes)?
**A.** 78±6 pmol/15 min/mg

**Q.** Which results are given for `CCCC(=O)Nc1ncnc2c1ncn2[C@@H]1O[C@@H]2COP(=O)(O)O[C@H]2[C@H]1OC(=O)CCC` [db-cAMP]?
**A.** improvement of time on the rod ([4]; AC5KO, 30 minutes after injection): two-fold increase; rotor rod performance 48 hours after injection ([4]; AC5KO, 48 hours after injection): dropped to the basal level; improvement of time on the rod, increase ([4]; hetero and WT, 30 minutes after injection): 25-30%
